Laboratory results: patent US11464768B2, “Pimavanserin alone or in combination for use in the treatment of Alzheimer's disease psychosis” (ACADIA Pharmaceuticals Inc., priority 2016, dated 2022)

What was measured:
[1] = test system: ADP patients; test: Same twelve-week study: NPI-NH Agitation/Aggression subscale (Domain C); assay type: in vivo, human; conditions: pimavanserin arm; placebo arm 0.47
Excerpt: To determine the score for a given domain, the caregivers rate frequency and severity of the resident's behavior for that particular domain. The frequency is rated on a 0-4 point scale. For example, the frequency is rated as a) 0 for not present; b) 1 for occasional; c) 2 for often; d) 3 for frequent; and e) 4 for very frequent occurrence of the behavior in question. The severity is rated on a 1-3 point scale. For example, the severity is rated as a) 1 for mild; b) 2 for moderate; and 3 for severe. The score of each domain is determined by multiplying the frequency rating score by the severity rating score. The score of each domain ranges from 0 to 12.
A twelve-week, randomized, double-blind, placebo-controlled, single-center study was conducted in ADP patients in nursing homes. […]
Nursing home staff administered the study drug to the patient each morning as a single oral dose (2×17 mg tablets) beginning within 24 hours of completion of all baseline assessments (Day 1). […] Behavioral symptoms were assessed using the NPI-NH Total and Individual Behavioral Domain scores and the Cohen-Mansfield Agitation Inventory—Short Form (CMAI-SF). […] In addition, evaluation of activities of daily living (ADL) was evaluated using the Alzheimer's Disease Cooperative Study-ADL instrument (ADCS-ADL). […]

[2] = test system: DOI ((±)-2,5-dimethoxy-4-iodoamphetamine, a serotonin agonist) induced head twitches; conditions: rat; effective in these models at oral doses of 3 and 10 mg/kg; cited from earlier work
[3] = test system: ADP patients; test: Same twelve-week study: safety assessment (adverse events); assay type: in vivo, human; conditions: for tolerability and safety profile: 34 mg once daily for twelve weeks, 181 patients in safety assessment
Protocol: Each patient participated in a 3-week screening period, a 12-week double-blind treatment period, and a 4-week follow-up period. The maximum duration of the study for each patient was approximately 19 weeks. Pimavanserin was administered in tablet form, once daily by mouth in 34 mg doses (2 tablets of 17 mg pimavanserin), equivalent to 40 mg pimavanserin tartrate. (2 tablets of 20 mg pimavanserin tartrate) Placebo was administered with visibly matching tablets, using the same route and regimen. The safety of subjects was assessed by monitoring adverse events, physical examinations, vital signs, clinical laboratory tests (hematology, clinical chemistry, and urinalysis), and electrocardiograms. Furthermore cognitive status was assessed via MMSE.
The results of the study were obtained from a majority of the 181 patients, some of the patients were excluded from the endpoint results but all 181 patients were included in the safety assessment.

[4] = test system: hyperactivity induced by the N-methyl-D-aspartate antagonist MK-801; conditions: mice; effective in these models at oral doses of 3 and 10 mg/kg; cited from earlier work

CC(C)COc1ccc(CNC(=O)N(Cc2ccc(F)cc2)C2CCN(C)CC2)cc1 [Pimavanserin, N-(1-methylpiperidin-4-yl)-N-(4-fluorophenylmethyl)-N′-(4-(2-methylpropyloxy)phenylmethyl)carbamide]
improvement on the Agitation/Aggression subscale (Domain C) of the NPI-NH [1]: 1.13 points
activity in DOI induced head twitches [2]: active
tolerability and safety profile [3]: safe and well tolerated
tolerability and safety profile ([3]; listed as pimavanserin): well tolerated
effect on cognitive function or motor functions ([3]; pimavanserin arm (same in placebo arm)): no negative effect on cognitive function or motor functions
adverse event: falls ([3]; pimavanserin arm, placebo arm 23.1%): 23.3%
adverse event: urinary tract infection ([3]; pimavanserin arm, placebo arm 27.5%): 22.2%
attenuation of hyperactivity induced by MK-801 [4]: active
